Laboratory results reported in patent publication US4426371A, “Novel N-hydroxyalkylated dicarboxylic acid bis(3,5-dicarbamoyl-2,4,6-triiodoanilides), as X-ray contrast media” (Schering, Aktiengesellschaft, priority 1980, dated 1984).

How the values were obtained:
[1] = Osmotic pressure of aqueous contrast media solution; format: physicochemical; conditions: 300 mg I/ml
Source text: (§1) It was surprising that, per this invention, a comparatively minor chemical modification of the class of compounds described in DOS No. 2,628,517 (U.S. Pat. No. 4,239,747) would lead to a significant improvement in compatibility and to an increase in solubility. This can be seen from Table I wherein the compound A of this invention (malonic acid bis[3,5-bis(1,3-dihydroxyisopropylcarbamoyl)-2,4,6-triiodo-N-2-hydroxyethylanilide]) is compared with respect to osmotic pressure, viscosity, and compatibility with oxalic acid bis[3,5-bis(2,3-dihydroxypropyl-N-methylcarbamoyl)-2,4,6-triiodo-anilide] (B), as well as with iopamidol (5-[α-hydroxypropionyl-amino]-2,4,6-triiodoisopthalic acid bis[1,3-dihydroxyisopropyl-amide]) and metrizamide [2-(3-acetamido-2,4,6-triiodo-5-[N-methylacetamido]benzamido)-2-deoxy-D-glucose)].
(§2) Osmotic Pressure, Viscosity, and Compatibility of Nonionic
(§3) Contrast Media of Different Chemical Structure as an Aqueous
(§4) Solution (Concentration: 300 mg I/ml)

[2] = Viscosity of aqueous contrast media solution; format: physicochemical; conditions: 300 mg I/ml
Source text: as §1, §2, §3, §4

[3] = system: Rat; assay: Compatibility: LD50 (Rat) upon i.v. injection; format: in vivo; conditions: rate 2 ml/min, aqueous solution 300 mg I/ml
Procedure: as §2, §3, §4
Pressure Viscosity (g Iodine/kg Body

[4] = for angiography and myelography; background; cited from earlier work

SMILES	Osmotic Pressure 37° C. [1] [atm]	Viscosity 37° C. [2] [cp]	LD50 (Rat) upon i.v. Injection [3]	concentrated, radiopaque solutions not hypertonic to blood or other body fluid [4]
O=C(NC(CO)CO)c1c(I)c(C(=O)NC(CO)CO)c(I)c(N(CCO)C(=O)CC(=O)N(CCO)c2c(I)c(C(=O)NC(CO)CO)c(I)c(C(=O)NC(CO)CO)c2I)c1I [A, malonic acid bis[3,5-bis(1,3-dihydroxyisopropylcarbamoyl)-2,4,6-triiodo-N-2-hydroxyethylanilide]]	7.2	6.8	more than 30 g Iodine/kg Body Weight	
CN(CC(O)CO)C(=O)c1c(I)c(NC(=O)C(=O)Nc2c(I)c(C(=O)N(C)CC(O)CO)c(I)c(C(=O)N(C)CC(O)CO)c2I)c(I)c(C(=O)N(C)CC(O)CO)c1I (centres unmarked) [B, oxalic acid bis[3,5-bis(2,3-dihydroxypropyl-N-methylcarbamoyl)-2,4,6-triiodo-anilide]]	4.3	13.7	13 g Iodine/kg Body Weight	
C[C@H](O)C(=O)Nc1c(I)c(C(=O)NC(CO)CO)c(I)c(C(=O)NC(CO)CO)c1I [Iopamidol, 5-[α-hydroxypropionyl-amino]-2,4,6-triiodoisopthalic acid bis[1,3-dihydroxyisopropyl-amide]]	15.7	4.7	12 g Iodine/kg Body Weight	it has not been possible to prepare solutions sufficiently concentrated and radiopaque
CC(=O)Nc1c(I)c(C(=O)N[C@H]2C(O)O[C@H](CO)[C@@H](O)[C@@H]2O)c(I)c(N(C)C(C)=O)c1I (some centres unmarked) [Metrizamide]	12.3	6.2	12 g Iodine/kg Body Weight	it has not been possible to prepare solutions sufficiently concentrated and radiopaque
